Reference: publication PMC6268972, “Antiproliferative, Antimicrobial and Apoptosis Inducing Effects of Compounds Isolated from Inula viscosa” (Molecules, 2012)
Values after ≈ are worked out from the molar mass of the structure shown.

Columns and labels:
Hep-2 cells = test: MTT antiproliferative activity assay, Hep-2; assay type: cell-based; conditions: Homo sapiens, HEp-2; MTT, 48 h treatment, average of three replicates; read-out: IC50 Hep-2
Procedure: Hep-2 (larynx carcinoma, ATCC: CCL-23), MCF-7 (breast epithelial adenocarcinoma, ATCC: HTB-22), and Vero (African green monkey kidney, ATCC: CCL-81) cell lines were kindly provided by Dr. Mona Hassuneh (Department of Biological Sciences, University of Jordan). Cells were grown in Minimum Essential Medium Eagle (Gibco, Paisley UK) supplemented with 10% heat inactivated fetal bovine serum (Gibco, Paisley UK), 29 μg/mL L-glutamine, and 40 μg/mL gentamicin. Cells were incubated in a humidified atmosphere of 5% CO2 at 37 °C.
The antiproliferative activity of Inula viscosa compounds was measured using the MTT (3-(4,5-dimethylthiazol-2-yl)-2,5-diphenyltetrazolium bromide) assay (Promega, Madison, WI, USA). The assay detects the reduction of MTT by mitochondrial dehydrogenase to blue formazan product, which reflects the normal function of mitochondria and cell viability. Exponentially growing cells were washed and seeded at 17,000 cells/well for Hep-2 cell line and 11,000 cells/ well for MCF-7 cell line (in 200 μL of growth medium) in 96 well microplates (Nunc, Roskilde, Denmark). After 24 h incubation, a partial monolayer was formed then the media was removed and 200 μL of the medium containing the compound (initially dissolved in DMSO) were added and re-incubated for 48 h. Then 100 μL of the medium were aspirated and 15 μL of the MTT solution were added to the remaining medium (100 μL) in each well. After 4 h contact with the MTT solution, blue crystals were formed. One hundred μL of the stop solution were added and incubated further for 1 h.
Reduced MTT was assayed at 550 nm using a microplate reader (Biotek, Winooski, VT, USA). Control groups received the same amount of DMSO (0.1%).Untreated cells were used as a negative control while, cells treated with vincristine sulfate were used as a positive control. Eight concentrations (150, 100, 50, 20, 10, 5, 2, and 1 μg/mL) were prepared from each compound and tested against the three cell lines. IC50 values were calculated as the concentrations that show 50% inhibition of proliferation on any tested cell line. Stock solutions of the compounds were dissolved in (DMSO) then diluted with the medium and sterilized using 0.2 μm membrane filters. The toxicity of DMSO was determined and the final dilution of compounds used for treating the cells contained not more than 0.1% (non toxic concentration) DMSO. IC50 values were reported as the average of three replicates. The antiproliferative effect of the tested compounds was determined by comparing the optical density of the treated cells against the optical density of the control (cells treated with media containing 0.1% DMSO).

Salmonella typhimurium = test: Microtiter plate dilution MIC, S. typhimurium; assay type: cell-based; conditions: Salmonella enterica, ATCC 14028 / TYPHIMURIUM; ATCC14028, 24 h, 100% inhibition; read-out: Minimum inhibitory concentration (MIC) S.t
Procedure: (§1) The microbial strains used in this study were Escherichia coli (ATCC 10798), Salmonella typhimurium (ATCC14028), Methicillin resistant Staphylococcus aureus (MRSA, Clinical isolate), Bacillus cereus (Toxigenic strain TS), and Candida albicans (ATCC 90028). Bacterial strains were stocked onto nutrient agar slant at 4 °C, and Candida albicans was stocked onto malt agar slant at 4 °C.
(§2) The microtiter plate dilution method was used to determine the MIC (minimum inhibitory concentration) of compounds under study. Sterile 96-well microplates (Nunc) were used for the assay. Stock compounds were dissolved in DMSO so that the final concentrations in micro wells were less than 1% DMSO and solvent controls were run at these concentrations. Positive controls of penicillin G and tetracycline (Oxoid, Hampshire, UK) were prepared at the following concentrations 2, 4, 8, 16, 31, 62.5, 125, and 250 μg/mL. 1% DMSO was used as a solvent control. Compounds were diluted to twice the desired initial test concentration (250 µg/mL) with Muller Hinton broth (MHB) (Oxoid). All wells, except the first were filled with MHB (50 μL). Compounds (100 μL) were added to the first well and serial two-fold dilutions were made down to the desired minimum concentration (2 μg/mL). An over-night culture of bacteria suspended in MHB was adjusted to turbidity equal to 0.5 McFarland standard. The plates were inoculated with bacterial suspension (50 μL/well) and incubated at 37 °C for 24 h. Then the turbidity was measured using micro-plate reader (Biotek) at 620 nm wavelength. The same procedure was used to determine the antifungal activity of compounds against Candida albicans. The medium used was malt extract broth. The yeast cells were suspended in 0.85% saline, with an optical density equivalent to 0.5 McFarland standard, and diluted 1:100 in malt extract broth to obtain the working concentration. After 24 h incubation with each compound, the turbidity was measured at 530 nm wavelength using a spectrophotometer (Biotek). Percentage inhibition for tested microorganisms was calculated using the following formula:
(§3) MIC was determined as the lowest concentration of the compound that causes complete inhibition (100%) of each microorganism.

Bacillus cereus = test: Microtiter plate dilution MIC, B. cereus; assay type: cell-based; conditions: Bacillus cereus; Toxigenic strain TS, 24 h, 100% inhibition; read-out: Minimum inhibitory concentration (MIC) B.c
Procedure: as §1, §2, §3

MCF-7 cells = test: TUNEL colorimetric apoptosis assay; assay type: cell-based, human; conditions: 15 µg/mL, 28 h, compared with untreated cells
Procedure: Apoptosis was detected using terminal deoxynucleotidyl transferase (TdT) mediated-16-deoxyuridine triphosphate (dUTP) Nick-End Labelling (TUNEL) system (Promega, Madison, WI, USA). MCF-7 cells cultured in 24 well plates were treated with 15 µg/mL of either 3-O-methylquercetin or 3,3′-di-O-methylquercetin for 28 h. The assay was conducted according to the manufacturer's instructions. Briefly, treated cells were fixed using 10% formalin followed by washing with phosphate buffer saline (PBS). Cells were then permeabilized using 0.2% triton X-100. Biotinylated dUTP in rTdT reaction mixture was added to label the fragmented DNA at 37 °C for one hour, followed by blocking endogenous peroxidases using 0.3% hydrogen peroxide. Streptavidin HRP (1:500 in PBS) was added and incubated at room temperature for 30 min. Finally, hydrogen peroxide and chromagen diaminobenzidine were used to visualize nuclei with fragmented DNAs under the light microscope (Novex, Arnhem, Holland). Cells treated with 40 nM vincristine sulfate were used as a positive control while untreated cells were used as a negative control.

`COc1cc(-c2oc3cc(O)cc(O)c3c(=O)c2OC)ccc1O` [3,3′-di-O-Methylquercetin] showed an IC50 (Hep-2 cells) of 28 ± 1.13 µg/mL (≈ 84.8 µM), an MIC (Salmonella typhimurium) of 125 µg/mL (≈ 378 µM) and an MIC (Bacillus cereus) of 62.5 µg/mL (≈ 189 µM). For the same compound, the “Apoptosis induction (DNA fragmentation, TUNEL)” value (MCF-7 cells) was “increase in the number of apoptotic cells with fragmented DNA”.
